Non-standard residues stand in square brackets, D forms with d. Residues, ends and D or L forms follow the SMILES beside them. dPhe(2,4-Cl2) = N[C@H](Cc1ccc(Cl)cc1Cl)C(=O)O; Phe(4-Cl) = N[C@@H](Cc1ccc(Cl)cc1)C(=O)O; Phe(4-F) = N[C@@H](Cc1ccc(F)cc1)C(=O)O; dAla(2-furyl) = N[C@H](Cc1ccco1)C(=O)O; Arg(Me) = CNC(=N)NCCC[C@H](N)C(=O)O; Hyp = O=C(O)[C@@H]1C[C@@H](O)CN1; 2Pal = N[C@@H](Cc1ccccn1)C(=O)O; 3Pal = N[C@@H](Cc1cccnc1)C(=O)O; azaGly = NNC(=O)O
target: T1, human kiss1 receptor (GPR54) (Homo sapiens, UniProt Q969F8); test: Kiss1 receptor (GPR54) binding activity of agonists, FRET detection in NFAT-bla CHO-K1 cells; type: cell-based; conditions: GPR54; measured according to the method of effect Embodiment 1; preliminary data; read-out: Preliminary measurement data (GPR54) EC50
T1 construct: host or cells: NFAT-bla CHO-K1 cells (Chinese hamster ovary), purchased recombinant cell line
T1 sequence (Q969F8 whole entry): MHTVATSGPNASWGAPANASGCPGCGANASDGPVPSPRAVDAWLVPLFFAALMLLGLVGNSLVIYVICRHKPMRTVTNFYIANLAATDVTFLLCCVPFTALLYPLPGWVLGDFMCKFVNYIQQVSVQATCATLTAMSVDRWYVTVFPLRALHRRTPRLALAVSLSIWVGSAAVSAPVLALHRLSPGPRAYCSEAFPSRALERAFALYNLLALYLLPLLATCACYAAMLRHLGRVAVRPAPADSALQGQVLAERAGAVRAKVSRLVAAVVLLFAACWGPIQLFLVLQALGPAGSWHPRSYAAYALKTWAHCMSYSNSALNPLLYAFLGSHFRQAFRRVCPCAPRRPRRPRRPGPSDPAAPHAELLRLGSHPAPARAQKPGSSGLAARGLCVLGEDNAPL
Experimental: Effect Embodiment 1 Determination of Kiss1 Receptor (GPR54) Binding Activity of Kiss1 Receptor (GPR54) Agonist
The binding activity test of each compound from the above the embodiments with kiss1 receptor (GPR54) was performed by fluorescence energy resonance transfer (FRET) detection technology to detect EC50 values of polypeptides and peptide analogs. The cells used in this experiment were NFAT-bla CHO-K1 cells (k1720, invitrogen, thermosher) that express human kiss1 receptor (GPR54). The specific operations were as follows:
Day 1: Seeding Cells in Plate
1. Microscope (CKX41, OLYMPUS), object lens×4 times, ocular lens×10 times. The cells were ensured in a good condition.
2. Digesting the cells, adding 3 ml of 0.05% pancreatin into a culture dish; cells were placed in a 37° C., 5% CO2 incubator for 2 minutes (Thermo Fisher). After the cells became round under the microscope, 7 ml of culture medium was added. The formula of culture medium was as follows: DMEM 90%, dialzedfbS10, NEAA 0.1 mM, HEPES 25 mM, Penicillin 100 U/ml, Streptomycin 100 μm/ml, pH7.3. After blowing and stirring, it was transferred to 15 mL centrifuge tube (430790, Corning). Centrifuge at 1000 rpm for 5 min (5810R, Eppendorf) and the supernatant was discard.
3. Adding 7 mL of culture medium (DMEM+0.1% BSA), it was pipetting into single cell suspension, after counting with Bio-RAD counter, the cell density was adjusted to 312,500 cells/ml.
4. Cells were inoculated into 384 well plates at 32 μL per well, and the cell number was controlled at 10000 cells/well. 32 μl of culture medium was added into the blank control.
Day 2: Dosing and Data Analysis
1) The compound to be tested was prepared into 50 mM working solution with DMSO.
2) 40 μl of the working solution of the compound to be tested was added into column 2 of row A-H of U-shaped 96-well plate (3797, comings), and 60 μl of DMSO was added into column 3-11. 20 μl of compound solution was sucked from the second column to the third column with a multichannel pipette blowing and stirring evenly; 20 μl of compound solution was absorbed from the third column with a multichannel pipette, then added into the fourth column, blowed and stirred to mix well; the compound was serially diluted 4-fold to a total of 10 concentrations. Column 1 and column 12 of 96-well plates were supplemented with 40 μl DMSO.
2. Intermediate Plate Configuration
1) AU-shaped 96-well plate was used, 199 μL of culture medium (DMEM+0.1% BSA) was added to each well, 1 μL of diluted compound (or DMSO) was sucked from 1000× compound plate and added into the 96-well plate at the corresponding position, blowed and stirred to mix well.
2) Homemade positive compounds and compounds to be tested were added. The cell culture plate was took out from the incubator and cells state was observed under microscope. Diluted compound in the intermediate plate or DMSO was added into the cell, 8 μl per well.
3) Cells were cultured in 37° C. and 5% CO2 for 4 hours.
3. The Substrate was Added to Detect the Binding of the Drug to the Receptor
1) 1 μmol/L CCF-4AM solution and buffer solution B, C, D were equilibrated to room temperature. LiveBLAZER™-FRET B/G Loading Kit (K1095, thermo Fisher) containing CCF-4AM and solution B, solution C, solution D were also available from Invitrogen (K1157, thermo Fisher).
2) 6× loading solution was prepared: 6 μl of CCF-4AM dissolved solution A, 60 μl of solution b, 904 μl of solution c, and 30 μl of solution D were pipetted into EP tube, blowed and stirred to mix well.
3) 8 μl of the above-mentioned liquid was sucked with a multichannel pipette, added into a 96-well plate, and incubated for 2 hours at room temperature.
4) The PerkinElmer detector was used to detect the luminous signals of each hole. FI mode, λex=409 nm, λem1=460 nm, λem2=530 nm.
4. Data Processing Using Graphpad Prism 5 (GraphPad Software. Inc)
Effective rate %=(Signal−Min)/(Max−Min)×100%.

Row | SMILES | EC50 [nM]
1 | CNC(=N)NCCC[C@H](NC(=O)C(CC(C)C)C(=S)NCNC(=O)[C@H](Cc1ccccc1)NC(=O)[C@@H](NC(=O)[C@H](CC(N)=O)NC(=O)[C@@H]1C[C@@H](O)CN1C(=O)[C@@H](Cc1ccc(O)cc1)NC(C)=O)[C@@H](C)O)C(=O)N[C@@H](Cc1c[nH]c2ccccc12)C(N)=O (single isomer, unassigned) [YA-254, Ac-(D-Tyr)-Hyp-Asn-Thr-Phe-ψ(NHCS)Gly-Leu-Arg(Me)-Trp-NH2] | 0.03
2 | CNC(=N)NCCC[C@H](NC(=O)C(CC(C)C)C(=S)NCNC(=O)[C@H](Cc1ccccc1)NC(=O)[C@@H](NC(=O)[C@H](CC(N)=O)NC(=O)[C@@H]1CC(F)(F)CN1C(=O)[C@@H](Cc1ccc(Cl)cc1Cl)NC(C)=O)[C@@H](C)O)C(=O)N[C@@H](Cc1c[nH]c2ccccc12)C(N)=O (single isomer, unassigned) [YA-255, Ac-[D-Phe(2,4-DiCl)]-DiFluorPro-Asn-Thr-Phe-ψ(NHCS) Gly-Leu-Arg(Me)-Trp-NH2] | 0.028
3 | CNC(=N)NCCC[C@H](NC(=O)C(CC(C)C)C(=O)NCNC(=O)[C@H](Cc1ccccc1)NC(=O)[C@@H](NC(=O)[C@H](CC(N)=O)NC(=O)[C@@H]1C[C@@H](O)CN1C(=O)[C@@H](Cc1ccc(O)cc1)NC(C)=O)[C@@H](C)O)C(=O)N[C@@H](Cc1c[nH]c2ccccc12)C(N)=O (single isomer, unassigned) [YA-303, Ac-(D-Tyr)-Hyp-Asn-Thr-Phe-ψ(NHCO)Gly-Leu-Arg(Me)-Trp-NH2] | 0.01
4 | CC(=O)N[C@@H](Cc1ccc(O)cc1)C(=O)N[C@@H](CC(N)=O)C(=O)N[C@@H](Cc1c[nH]c2ccccc12)C(=O)N[C@@H](CC(N)=O)C(=O)N[C@@H](CO)C(=O)N[C@@H](Cc1ccccc1)C(=O)NCC(=O)N[C@@H](CC(C)C)C(=O)N[C@@H](CCCNC(=N)N)C(=O)N[C@@H](Cc1ccccc1)C(N)=O [YA-2, Ac-Tyr-Asn-Trp-Asn-Ser-Phe-Gly-Leu-Arg-Phe-NH2] | 10
5 | CNC(=N)NCCC[C@H](NC(=O)[C@H](CC(C)C)NC(=O)NNC(=O)[C@H](Cc1ccccc1)NC(=O)[C@@H](NC(=O)[C@H](CC(N)=O)NC(=O)[C@@H]1C[C@@H](O)CN1C(=O)[C@@H](Cc1ccc(Cl)cc1Cl)NC(C)=O)[C@@H](C)O)C(=O)N[C@@H](Cc1c[nH]c2ccccc12)C(N)=O [YA-42, Ac-[D-Phe(2,4-DiCl)]-Hyp-Asn-Thr-Phe-azaGly-Leu-Arg(Me)-Trp-NH2] (Ac-[dPhe(2,4-Cl2)][Hyp]NTF[azaGly]L[Arg(Me)]W-NH2) | 0.015
6 | CNC(=N)NCCC[C@H](NC(=O)[C@H](CC(C)C)NC(=O)NNC(=O)[C@H](Cc1ccccc1)NC(=O)[C@@H](NC(=O)[C@H](CC(N)=O)NC(=O)[C@@H]1C[C@@H](O)CN1C(=O)[C@@H](Cc1ccco1)NC(C)=O)[C@@H](C)O)C(=O)N[C@@H](Cc1c[nH]c2ccccc12)C(N)=O [YA-43, Ac-(D-2Fua)-Hyp-Asn-Thr-Phe-azaGly-Leu-Arg(Me)-Trp-NH2] (Ac-[dAla(2-furyl)][Hyp]NTF[azaGly]L[Arg(Me)]W-NH2) | 0.095
7 | CNC(=N)NCCC[C@H](NC(=O)[C@H](CC(C)C)NC(=O)NNC(=O)[C@H](Cc1ccccc1)NC(=O)[C@@H](NC(=O)[C@H](CC(N)=O)NC(=O)[C@@H]1C[C@@H](O)CN1C(=O)[C@H](Cc1ccccn1)NC(C)=O)[C@@H](C)O)C(=O)N[C@@H](Cc1c[nH]c2ccccc12)C(N)=O [YA-68, Ac-2Pal-Hyp-Asn-Thr-Phe-azaGly-Leu-Arg(Me)-Trp-NH2] (Ac-[2Pal][Hyp]NTF[azaGly]L[Arg(Me)]W-NH2) | 0.18
8 | CNC(=N)NCCC[C@H](NC(=O)[C@H](CC(C)C)NC(=O)NNC(=O)[C@H](Cc1ccccc1)NC(=O)[C@@H](NC(=O)[C@H](CC(N)=O)NC(=O)[C@@H]1C[C@@H](O)CN1C(=O)[C@H](Cc1cccnc1)NC(C)=O)[C@@H](C)O)C(=O)N[C@@H](Cc1c[nH]c2ccccc12)C(N)=O [YA-69, Ac-3Pal-Hyp-Asn-Thr-Phe-azaGly-Leu-Arg(Me)-Trp-NH2] (Ac-[3Pal][Hyp]NTF[azaGly]L[Arg(Me)]W-NH2) | 0.3
9 | CNC(=N)NCCC[C@H](NC(=O)[C@H](CC(C)C)NC(=O)NNC(=O)[C@H](Cc1ccccc1)NC(=O)[C@@H](NC(=O)[C@H](CC(N)=O)NC(=O)[C@@H]1C[C@@H](O)CN1C(=O)[C@H](Cc1ccc(F)cc1)NC(C)=O)[C@@H](C)O)C(=O)N[C@@H](Cc1c[nH]c2ccccc12)C(N)=O [YA-71, Ac-Phe(4-F)-Hyp-Asn-Thr-Phe-azaGly-Leu-Arg(Me)-Trp-NH2] (Ac-[Phe(4-F)][Hyp]NTF[azaGly]L[Arg(Me)]W-NH2) | 0.058
10 | CNC(=N)NCCC[C@H](NC(=O)[C@H](CC(C)C)NC(=O)NNC(=O)[C@H](Cc1ccccc1)NC(=O)[C@@H](NC(=O)[C@H](CC(N)=O)NC(=O)[C@@H]1C[C@@H](O)CN1C(=O)[C@H](Cc1ccc(Cl)cc1)NC(C)=O)[C@@H](C)O)C(=O)N[C@@H](Cc1c[nH]c2ccccc12)C(N)=O [YA-72, Ac-Phe(4-Cl)-Hyp-Asn-Thr-Phe-azaGly-Leu-Arg(Me)-Trp-NH2] (Ac-[Phe(4-Cl)][Hyp]NTF[azaGly]L[Arg(Me)]W-NH2) | 5.55

same assay, conditions: NFAT-bla CHO-K1 cells that express human kiss1 receptor (GPR54); FRET; cells cultured with compound for 4 hours; read-out: GPR54 EC50/nM

Row | SMILES | EC50 [nM]
11 | CC(=O)N[C@@H](Cc1ccc(O)cc1)C(=O)N[C@@H](CC(N)=O)C(=O)N[C@@H](Cc1c[nH]c2ccccc12)C(=O)N[C@@H](CC(N)=O)C(=O)N[C@@H](CO)C(=O)N[C@@H](Cc1ccccc1)C(=O)NCC(=O)N[C@@H](CC(C)C)C(=O)N[C@@H](CCCNC(=N)N)C(=O)N[C@@H](Cc1ccccc1)C(N)=O [YA-2, Ac-Tyr-Asn-Trp-Asn-Ser-Phe-Gly-Leu-Arg-Phe-NH2] | 2.11
